Assay [1] concerns α-N-acetylglucosaminidase (NAGLU). Nature of the assay: Enzyme activation assay, MPS IIIB fibroblasts GM01426. The assay is classed as cell-based, human. The conditions noted are these: 3 days, 0-10 μM. As to the method: (§1) Compounds (1) and (B) (compound (B) is described in A. Vasella, Helvetica Chimica Acta, 1998, 865) were tested in 3 Sanfillipo patient-derived fibroblast cell lines, named as MPS IIIB fibroblast cells lines below.
(§2) MPS IIIB fibroblasts (GM01426, GM02931 and GM00737) were cultured in the presence of various concentrations of compounds (1) and (B) (0-10 μM) for 3 days before α-N-acetylglucosaminidase (NAGLU) activity was measured in cell homogenates using 4-methylumbelliferyl-α-N-acetylglucosamine (4-MU-α-GlcNAc) as substrate. Cells were washed twice in phosphate buffered saline, homogenised in water using a small dounce homogeniser, centrifuged at 800 g for 5 min and the supernatant taken for protein and enzyme activity. Protein concentration was determined using the BCA assay (Pierce, UK) according to manufacturer's instructions. An aliquot, (5 μl) of homogenate was added to a well of a 96-well plate containing 10 μl 2 mM 4-MU substrate (in water) and 5 μl 0.2 M sodium acetate buffer, pH 4.3. Following incubation for 3-4 h at 37° C. in a humidified incubator, the reaction was stopped by adding 300 μl 0.5 M glycine/NaOH, pH 10.3 and the fluorescence measured at 460 nm using an excitation wavelength of 350 nm, em 460 nm. Enzyme activation is defined as the fold increase in fluorescence due to enzyme activity (FU/μg protein) in treated cells compared to untreated cells. […]

Assay [2] has the same test system. The assay is described as follows: Enzyme activation assay, MPS IIIB fibroblasts GM02931. The conditions noted are these: 3 days, 0-10 μM. Format: cell-based, human. As to the method: as §1, §2
Assay [3] shares this test system. Nature of the assay: Enzyme activation assay, MPS IIIB fibroblasts GM00737. Format: cell-based, human. The conditions noted are these: 3 days, 0-10 μM. Here is the method:
as §1, §2

In assay [4] the target is β-N-acetyl hexosaminidase. The assay is described as follows: In vitro glycosidase inhibition, β-N-acetyl hexosaminidase (bovine kidney). Format: biochemical. Here is the method:
(§3) All glycosidases and p-nitrophenyl glycosides were purchased from Sigma-Aldrich Co. The enzyme assays were performed according to the methods described in Kato, A.; Miyauchi, S.; Kato, N.; Nash, R. J.; Yoshimura, Y.; Nakagome, I.; Hirono, S.; Takahata, H.; Adachi, I. Bioorg. Med. Chem. 19, 3558-3568, 2011. The activities were determined using an appropriate p-nitrophenyl glycoside as substrate at the optimum pH of each enzyme. The reaction mixture contained 2 mM of the substrate and the appropriate amount of enzyme. The reaction was stopped by adding 2 mL of 400 mM Na2CO3. The released p-nitrophenol was measured spectrometrically at 400 nm.

The next assay addresses T1, α-mannosidase (Canavalia ensiformis, UniProt C0HJB3).
T1 construct: purchased Sigma-Aldrich Co
T1 sequence (C0HJB3 1-981): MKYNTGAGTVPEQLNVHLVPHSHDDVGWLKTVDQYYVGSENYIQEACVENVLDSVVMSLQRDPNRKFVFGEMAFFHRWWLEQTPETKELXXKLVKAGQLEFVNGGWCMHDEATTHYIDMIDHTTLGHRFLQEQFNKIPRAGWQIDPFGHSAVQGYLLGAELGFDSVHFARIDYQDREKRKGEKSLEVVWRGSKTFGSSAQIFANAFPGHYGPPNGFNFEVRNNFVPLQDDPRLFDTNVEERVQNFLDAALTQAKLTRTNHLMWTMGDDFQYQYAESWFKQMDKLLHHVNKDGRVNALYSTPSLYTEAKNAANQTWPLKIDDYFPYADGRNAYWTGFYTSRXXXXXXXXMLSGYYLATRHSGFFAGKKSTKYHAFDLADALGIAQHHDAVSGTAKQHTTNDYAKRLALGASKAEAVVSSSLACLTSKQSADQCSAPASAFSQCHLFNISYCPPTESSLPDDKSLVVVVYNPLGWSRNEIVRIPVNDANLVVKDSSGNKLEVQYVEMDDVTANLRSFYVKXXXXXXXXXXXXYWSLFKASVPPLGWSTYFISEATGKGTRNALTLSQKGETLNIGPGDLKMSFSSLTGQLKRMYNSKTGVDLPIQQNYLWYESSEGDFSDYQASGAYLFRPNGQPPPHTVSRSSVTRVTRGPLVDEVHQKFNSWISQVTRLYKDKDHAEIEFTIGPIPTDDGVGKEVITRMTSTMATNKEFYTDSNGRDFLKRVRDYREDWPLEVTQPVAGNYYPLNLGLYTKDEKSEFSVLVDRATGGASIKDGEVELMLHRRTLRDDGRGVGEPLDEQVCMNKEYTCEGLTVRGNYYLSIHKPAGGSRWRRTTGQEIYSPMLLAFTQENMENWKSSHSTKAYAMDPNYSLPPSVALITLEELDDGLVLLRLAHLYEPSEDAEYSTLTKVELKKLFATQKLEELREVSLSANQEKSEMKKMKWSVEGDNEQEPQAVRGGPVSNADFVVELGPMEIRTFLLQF
Nature of the assay: In vitro glycosidase inhibition, α-mannosidase (jack beans). Format: biochemical. Here is the method: as §3

Assay [5] has as its system β-N-acetyl hexosaminidase. Nature of the assay: In vitro glycosidase inhibition, β-N-acetyl hexosaminidase (human placenta). The assay is classed as biochemical. The conditions noted are these: for selectivity of inhibitory activity towards β-N-acetyl hexosaminidase: versus the other glycosidases of Table 1; for IC50: β-N-acetyl hexosaminidase, human placenta. Here is the method: as §3

The next assay deals with β-mannosidase. The assay is described as follows: In vitro glycosidase inhibition, β-mannosidase (snail). The assay is classed as biochemical. As to the method:
as §3

For the next assay, the system named is β-galactosidase. The assay is described as follows: In vitro glycosidase inhibition, β-galactosidase (bovine liver). The assay is classed as biochemical. As to the method: as §3
For assay [6], the target named is T2, α-glucosidase (Oryza sativa subsp. japonica, UniProt Q653V7).
T2 construct: purchased Sigma-Aldrich Co
Nature of the assay: In vitro glycosidase inhibition, α-glucosidase (rice). Format: biochemical. As to the method: as §3

A further assay has as its target T3, α-galactosidase (Coffea arabica, UniProt Q42656).
T3 construct: purchased Sigma-Aldrich Co
Nature of the assay: In vitro glycosidase inhibition, α-galactosidase (coffee beans). Format: biochemical. As to the method:
as §3

Another assay concerns the target rat intestinal maltase. Nature of the assay: In vitro glycosidase inhibition, α-glucosidase (rat intestinal maltase). The assay is classed as biochemical. Here is the method: as §3
Assay [7] has as its target T4, α-glucosidase (Saccharomyces cerevisiae, UniProt P53341).
T4 construct: purchased Sigma-Aldrich Co
The assay is described as follows: In vitro glycosidase inhibition, α-glucosidase (yeast). The assay is classed as biochemical. Here is the method: as §3

In assay [8] the target is β-glucosidase. Nature of the assay: In vitro glycosidase inhibition, β-glucosidase (bovine liver). The assay is classed as biochemical. As to the method:
as §3

In assay [9] the target is β-glucosidase. Nature of the assay: In vitro glycosidase inhibition, β-glucosidase (almond). Format: biochemical. Here is the method: as §3
The target of assay [10] is T5, α-N-acetyl galactosaminidase (Gallus gallus, UniProt Q90744).
T5 construct: purchased Sigma-Aldrich Co; host or cells: chicken liver
T5 sequence (Q90744 1-405): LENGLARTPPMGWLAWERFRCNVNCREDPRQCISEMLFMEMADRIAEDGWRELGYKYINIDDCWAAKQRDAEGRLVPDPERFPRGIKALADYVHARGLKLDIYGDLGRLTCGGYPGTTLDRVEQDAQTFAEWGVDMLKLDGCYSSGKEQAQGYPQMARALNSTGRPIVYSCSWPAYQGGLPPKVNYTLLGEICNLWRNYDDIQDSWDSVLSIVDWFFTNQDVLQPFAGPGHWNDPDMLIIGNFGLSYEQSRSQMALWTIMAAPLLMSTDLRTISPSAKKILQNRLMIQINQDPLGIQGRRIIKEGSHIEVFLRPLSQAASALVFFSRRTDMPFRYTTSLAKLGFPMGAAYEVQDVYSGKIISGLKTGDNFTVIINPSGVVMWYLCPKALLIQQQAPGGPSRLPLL
Nature of the assay: In vitro glycosidase inhibition, α-N-acetyl galactosaminidase (chicken liver). Format: biochemical. Here is the method:
as §3

[11] abbreviates: 1000 μM, read-out: % of inhibition at 1000 μM.
[12] abbreviates: read-out: % of inhibition at 1000 μM.

Here are results for three compounds from patent US20140296288A1, “IMINO-SUGAR C-GLYCOSIDES, PREPARATION AND USE THEREOF” (UNIVERSITE PIERRE ET MARIE CURIE (PARIS 6), priority 2011, published 2014).

Like-named read-outs stand apart in the source and are kept apart here. A value given as a limit tells only on which side of the number the result lay.

T2 sequence (Q653V7 34-885): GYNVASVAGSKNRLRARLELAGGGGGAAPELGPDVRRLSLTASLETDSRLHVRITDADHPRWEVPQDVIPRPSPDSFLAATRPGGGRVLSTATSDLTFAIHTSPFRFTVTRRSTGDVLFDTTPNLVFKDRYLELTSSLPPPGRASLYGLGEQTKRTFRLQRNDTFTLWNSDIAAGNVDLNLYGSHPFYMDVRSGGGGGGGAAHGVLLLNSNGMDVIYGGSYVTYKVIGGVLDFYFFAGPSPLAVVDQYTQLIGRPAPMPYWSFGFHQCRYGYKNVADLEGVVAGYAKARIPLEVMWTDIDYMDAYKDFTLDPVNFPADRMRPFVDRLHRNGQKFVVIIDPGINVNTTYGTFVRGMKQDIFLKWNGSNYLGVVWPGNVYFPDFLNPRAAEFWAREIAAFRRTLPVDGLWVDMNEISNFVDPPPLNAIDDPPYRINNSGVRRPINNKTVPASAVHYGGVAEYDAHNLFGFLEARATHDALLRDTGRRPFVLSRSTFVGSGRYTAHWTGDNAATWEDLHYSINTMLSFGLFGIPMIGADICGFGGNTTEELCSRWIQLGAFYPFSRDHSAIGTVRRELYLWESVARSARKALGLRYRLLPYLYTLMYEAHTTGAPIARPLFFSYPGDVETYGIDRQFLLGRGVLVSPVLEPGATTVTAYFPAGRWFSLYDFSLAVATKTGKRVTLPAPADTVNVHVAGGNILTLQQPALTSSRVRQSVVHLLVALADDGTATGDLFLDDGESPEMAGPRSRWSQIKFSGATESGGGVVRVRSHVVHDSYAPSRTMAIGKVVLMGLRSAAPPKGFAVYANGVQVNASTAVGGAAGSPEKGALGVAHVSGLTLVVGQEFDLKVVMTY
T4 sequence (P53341 whole entry): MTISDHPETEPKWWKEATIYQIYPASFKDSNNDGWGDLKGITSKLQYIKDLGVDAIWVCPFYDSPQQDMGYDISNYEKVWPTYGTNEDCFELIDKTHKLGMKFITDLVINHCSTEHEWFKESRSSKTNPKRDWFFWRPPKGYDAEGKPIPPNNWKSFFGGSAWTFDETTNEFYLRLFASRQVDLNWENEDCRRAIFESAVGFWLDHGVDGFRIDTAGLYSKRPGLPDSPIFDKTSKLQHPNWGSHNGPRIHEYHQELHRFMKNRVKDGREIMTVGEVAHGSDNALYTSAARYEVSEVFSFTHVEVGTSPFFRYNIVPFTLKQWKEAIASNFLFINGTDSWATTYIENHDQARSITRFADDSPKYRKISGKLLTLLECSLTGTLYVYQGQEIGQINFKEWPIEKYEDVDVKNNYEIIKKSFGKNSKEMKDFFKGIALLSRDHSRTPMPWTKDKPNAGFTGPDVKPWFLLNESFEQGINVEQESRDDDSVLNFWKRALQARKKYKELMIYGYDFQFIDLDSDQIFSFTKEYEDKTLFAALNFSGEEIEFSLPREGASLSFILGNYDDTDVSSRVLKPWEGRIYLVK
T3 sequence (Q42656 16-378): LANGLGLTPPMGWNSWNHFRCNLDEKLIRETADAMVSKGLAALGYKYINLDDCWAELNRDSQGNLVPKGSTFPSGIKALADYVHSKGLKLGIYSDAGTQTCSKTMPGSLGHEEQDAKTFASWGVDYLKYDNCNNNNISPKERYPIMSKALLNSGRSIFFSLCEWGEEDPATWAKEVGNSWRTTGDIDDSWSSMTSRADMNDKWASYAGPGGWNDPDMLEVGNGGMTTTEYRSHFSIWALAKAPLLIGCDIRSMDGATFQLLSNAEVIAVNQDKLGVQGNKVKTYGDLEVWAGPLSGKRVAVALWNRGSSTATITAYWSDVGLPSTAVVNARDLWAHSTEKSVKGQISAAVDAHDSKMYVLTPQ

Take “N-((2R,3R,4R,5S,6S)-3,4-dihydroxy-2,6-bis(hydroxymethyl)piperidin-5-yl)acetamide [Compound 1]”: the “NAGLU enzyme activation, result in words” value is “concentration dependent increase up to 1 μM” in assay [1], “activation at lower concentrations” in assay [2] and “activation at lower concentrations” in [3]. Further, the “NAGLU enzyme activation (fold increase in FU/μg protein vs untreated cells)” value in assay [1] (best activation seen) was found to be 2.4 fold.
With `CC(=O)N[C@@H]1[C@@H](O)[C@H](O)[C@@H](CO)N[C@@H]1CO` [Compound 1, N-((2R,3R,4R,5S,6S)-3,4-dihydroxy-2,6-bis(hydroxymethyl)piperidin-5-yl)acetamide], the IC50 (in general, the concentration at which inhibition is half-maximal) in assay [4] is 67 µM; in assay [5], 56 µM; against β-mannosidase, “NI (No Inhibition (less than 50% inhibition at 1000 μM))”; on rat intestinal maltase, “NI (No Inhibition (less than 50% inhibition at 1000 μM))”; against β-glucosidase [8], “NI (No Inhibition (less than 50% inhibition at 1000 μM))”; at β-glucosidase [9] it was “NI (No Inhibition (less than 50% inhibition at 1000 μM))”. Further, the inhibition at 1000 µM was 2.3% at α-mannosidase (setting [11]); less than 50% at α-mannosidase (read-out: IC50); 32.3% at α-glucosidase [6] (setting [11]); less than 50% at α-glucosidase [6] (read-out: IC50); 19.7% at α-galactosidase (setting [11]); less than 50% at α-galactosidase (read-out: IC50). The inhibition at 1000 µM on α-glucosidase [7] (setting [12]) is 18.5%; at α-glucosidase [7] (read-out: IC50) it was less than 50%; in [10] (setting [11]) it was 42.4%; in assay [10] (read-out: IC50), less than 50%. Moreover, the “selectivity of inhibitory activity towards β-N-acetyl hexosaminidase” value in [5] is “selective inhibitory activity”. Further, the “% of inhibition at 1000 μM” value in the assay with β-mannosidase stood at 1.9%; in the assay on β-galactosidase, 5.0%; in the assay on rat intestinal maltase, 26.7%; in the assay with β-glucosidase [8], 4.4%; with β-glucosidase [9], 5.0%.
Take `CC(=O)N[C@@H]1[C@@H](O)[C@H](O)[C@@H](CO)N[C@H]1CO` [1′, N-((2R,3R,4R,5S,6R)-3,4-dihydroxy-2,6-bis(hydroxymethyl)piperidin-5-yl)acetamide]: the IC50 in assay [4] is 65 µM; in [5] it was 72 µM; on β-mannosidase, “NI (No Inhibition (less than 50% inhibition at 1000 μM))”; against rat intestinal maltase, “NI (No Inhibition (less than 50% inhibition at 1000 μM))”; on β-glucosidase [8], “NI (No Inhibition (less than 50% inhibition at 1000 μM))”; at β-glucosidase [9], “NI (No Inhibition (less than 50% inhibition at 1000 μM))”. Besides, the inhibition at 1000 µM at α-mannosidase (setting [11]) was 0%; at α-mannosidase (read-out: IC50), less than 50%; at α-glucosidase [6] (setting [11]), 15.9%; on α-glucosidase [6] (read-out: IC50) it was less than 50%; on α-galactosidase (setting [11]) it was 13.1%; at α-galactosidase (read-out: IC50), less than 50%. Further, the inhibition at 1000 µM at α-glucosidase [7] (setting [12]) was 15.4%; at α-glucosidase [7] (α-glucosidase, yeast, read-out: IC50), less than 50%; in assay [10] (setting [11]), 42.7%; in assay [10] (read-out: IC50) it was less than 50%. The “selectivity of inhibitory activity towards β-N-acetyl hexosaminidase” value in assay [5] is recorded as “selective inhibitory activity”. Further, the “% of inhibition at 1000 μM” value in the assay on β-mannosidase is 0%; in the assay with β-galactosidase, 5.7%; with rat intestinal maltase, 1.3%; in the assay on β-glucosidase [8] it was 15.5%; in the assay on β-glucosidase [9], 18.3%.
